One may read the IC50 as the concentration that inhibits the measured activity by half. Higher therefore signals a need for much substance.

Results on nine molecules are retold here after US8524712B2, “Triazinone and diazinone derivatives useful as HSP90 inhibitors” (Synta Pharmaceuticals Corp., priority 2007, dated 2013).

Assay [1] deals with Her2. Kind of assay: Degradation of Her2 in BT-474 cells, Method 1 (Western blot). It counts as cell-based, human. As to conditions: 0.5 μM, overnight. Here is the method:
Human high-Her2 breast carcinoma BT474 (HTB-20), SK-BR-3 (HTB-30) and MCF-7 breast carcinoma (HTB-22) from American Type Culture Collection, VA, USA were grown in Dulbecco's modified Eagle's medium with 4 mM L-glutamine and antibiotics (100 IU/ml penicillin and 100 ug/ml streptomycine; GibcoBRL). To obtain exponential cell growth, cells were trypsinized, counted and seeded at a cell density of 0.5×10^6 cells/ml regularly, every 3 days. All experiments were performed on day 1 after cell passage.
BT-474 cells are treated with 0.5 μM, 2 μM, or 5 μM of 17AAG (a positive control) or 0.5 μM, 2 μM, or 5 μM of a compound of the invention overnight in DMEM medium. After treatment, each cytoplasmic sample is prepared from 1×10^6 cells by incubation of cell lysis buffer (#9803, cell Signaling Technology) on ice for 10 minutes. The resulting supernatant used as the cytosol fractions is dissolved with sample buffer for SDS-PAGE and run on a SDS-PAGE gel, blotted onto a nitrocellulose membrane by using semi-dry transfer. Non-specific binding to nitrocellulose is blocked with 5% skim milk in TBS with 0.5% Tween at room temperature for 1 hour, then probed with anti-Her2/ErB2 mAb (rabbit IgG, #2242, Cell Signaling) and anti-Tubulin (T9026, Sigma) as housekeeping control protein. […]
(In general: Immunoblotting shows a protein as a band on a membrane.)

Assay [2] has as its system MV-4-11 cells. Kind of assay: IC50 of Table 2: Method 2, MV-4-11 cell survival (Cell Counting Kit-8), reported as Her2 degradation / inhibition of Hsp90. It counts as cell-based. The settings on record: Homo sapiens, MV4-11, 72 hours at 37° C., text calls it Her2 degradation, table title inhibition of Hsp90. Here is the method: MV-4-11 cells (20,000 cells/well) were cultured in 96-well plates and maintained at 37° C. for several hours. The cells were treated with a compound of the invention or 17AAG (a positive control) at various concentrations and incubated at 37° C. for 72 hours. Cell survival was measured with Cell Counting Kit-8 (Dojindo Laboratories, Cat. #CK04).
On the technique in general: Tetrazolium assays rely on reduction of a dye to a coloured formazan, in cell work by metabolically active cells.

Turning to `C=CCNC1=C2C[C@@H](C)C[C@H](OC)[C@H](O)[C@@H](C)/C=C(\C)[C@H](OC(N)=O)[C@@H](OC)/C=C\C=C(/C)C(=O)NC(=CC1=O)C2=O` [Compound 17AAG, 17-allylamino-17-demethoxygeldanamycin], in assay [1], the “degradation of Her2” value is given as “partial degradation”. Take `COc1ccc(CN2CC(=O)NN=C2c2cc(C(C)C)c(O)cc2O)cc1` [Compound 8, 3-(2,4-dihydroxy-5-isopropylphenyl)-4-(4-methoxybenzyl)-4,5-dihydro-1,2,4-triazin-6(1H)-one]: the IC50 in assay [2] is more than 50 µM. As to `CCOC(=O)C1=C(C)NC(=O)NC1c1cc(C(C)C)c(O)cc1O` (stereo not drawn) [Compound 1, ethyl 4-(2,4-dihydroxy-5-isopropylphenyl)-6-methyl-2-oxo-1,2,3,4-tetrahydropyrimidine-5-carboxylate], the half-maximal inhibitory concentration (IC50) in assay [2] was more than 100 µM.

`CC(C)c1cc(C2=NNC(=O)CN2c2ccc3c(ccn3C)c2)c(O)cc1O` [Compound 4, 3-(2,4-dihydroxy-5-isopropylphenyl)-4-(1-methyl-1H-indol-5-yl)-4,5-dihydro-1,2,4-triazin-6(1H)-one] had an IC50 in assay [2] of more than 50 µM. In assay [2], `CC(C)c1cc(C2=NNC(=O)CN2Cc2ccc3c(c2)OCO3)c(O)cc1O` [Compound 5, 4-(benzo[d][1,3]dioxol-5-ylmethyl)-3-(2,4-dihydroxy-5-isopropylphenyl)-4,5-dihydro-1,2,4-triazin-6(1H)-one] registered an IC50 of 38.4 µM. Regarding `CC(C)c1cc(C2=NNC(=O)CN2c2ccc(N(C)C)cc2)c(O)cc1O` [Compound 7, 3-(2,4-dihydroxy-5-isopropylphenyl)-4-(4-(dimethylamino)phenyl)-4,5-dihydro-1,2,4-triazin-6(1H)-one], the IC50 in assay [2] is more than 50 µM.

The molecule `CC(C)c1cc(C2=NNC(=O)CN2c2ccc(N3CCOCC3)cc2)c(O)cc1O` [Compound 6, 3-(2,4-dihydroxy-5-isopropylphenyl)-4-(4-morpholinophenyl)-4,5-dihydro-1,2,4-triazin-6(1H)-one] came in with an IC50 in assay [2] of more than 50 µM. Molecule `CCN1CC2=C(C1=O)C(c1cc(C(C)C)c(O)cc1O)NC(=O)N2` (stereo not drawn) [Compound 2, 4-(2,4-dihydroxy-5-isopropylphenyl)-6-ethyl-3,4,6,7-tetrahydro-1H-pyrrolo[3,4-d]pyrimidine-2,5-dione] showed an IC50 in assay [2] of more than 100 µM.

`CC(C)c1cc(C2NC(=O)NC3=C2C(=O)OC3)c(O)cc1O` (stereo not drawn) [Compound 3, 4-(2,4-dihydroxy-5-isopropylphenyl)-3,4-dihydrofuro[3,4-d]pyrimidine-2,5(1H,7H)-dione] gave an IC50 in assay [2] of more than 500 µM.
